Experimental data published in publication PMC7136958, “Targeting the pregnane X receptor using microbial metabolite mimicry” (EMBO Molecular Medicine, 2020).
Where “and” joins values, the source holds several entries; their conditions need not be identical. Equal entries are not always repeated.

Experiments:
[1] = test system: NF-κB; assay: TNF-α-induced NF-κB reporter assay in LS174T PXR-KO cells; conditions: for NFkB NanoLuc luminescence, aver / NFkB %max: LS174T PXR-KO, EXP3; for NFkB %max: TNFa 5 ng/ml = 100
Source text: In early passage PXR‐KO cells, we used PXR and NF‐κB reporter‐co‐transfected and NF‐κB reporter‐transfected PXR‐KO cell line.
CRISPR/Cas9‐mediated knockout cells were generated by Synthego Corporation (Redwood City, CA, USA). Briefly, cells were first tested negative for mycoplasma. Guide RNA was selected for high activity, specificity, and activity to create premature stop codons through frameshift mutations in the coding region via insertions and/or deletions (Indels) within exon 2 of the gene encoding human PXR (NR1I2 transcript ID ENST00000337940). […] To generate these cells, ribonucleoproteins (RNPs) containing the Cas9 protein and synthetic chemically modified sgRNA (Synthego) were electroporated into the cells using Synthego's optimized protocol. Editing efficiency is assessed upon recovery, 48 h post‐electroporation. Genomic DNA is extracted from a portion of the cells, PCR‐amplified, and sequenced using Sanger sequencing. The resulting chromatograms are processed using Synthego Inference of CRISPR Edits software (ice.synthego.com).

[2] = test system: hPXR mice; assay: DSS-induced acute colitis in hPXR mice; assay type: in vivo, mouse
Procedure: For these studies, 7‐ to 8‐week‐old female (DeVoss & Diehl, 2014) hPXR (mice expressing the human PXR gene) and pxr ^−/− mice (C57BL/6 background) were bred and each genotype was separated into two treatment groups using a random allocation method via coin toss—(i) n = 3 control (0.8% DMSO in 100 μl drinking water) and (ii) n = 3 FKK6 (200 μM (0.4 mg/kg/day) in 0.8% DMSO in 100 μl drinking water) administered once per day via oral gavage, and via intrarectal gavage for a total of 10 consecutive days The dose was chosen based on the extrapolation of the total dose delivered over 10 days to mice (~ 4 mg/kg), which is equivalent to that delivered to mice for determining target gene expression over 3–5 doses (3–5 mg/kg). […] Fecal pellets were collected prior to the initiation of the treatment protocol. All mice were starved overnight (12 h) to allow for smooth intrarectal delivery; however, the mice were allowed to feed ad libitum during the day. After 10 days, the mice were sacrificed and organs/tissues/feces harvested for further study. Prior to necropsy, mice were administered FITC‐dextran, and mouse serum was collected for the FITC‐dextran assay as previously described (Vetizou et al, 2015). The experimenter was not blinded to treatment allocation; however, the pathologist (KS) evaluating histologic scores was blinded to treatment allocation. All studies were approved by the Institute of Animal Studies at the Albert Einstein College of Medicine, INC (IACUC # 20160706 and preceding protocols). Colitis scoring was performed as previously published, and post‐examination masking was conducted (Kim et al, 2012; Meyerholz & Beck, 2018).
For RT–qPCR of colon tissue for cytokine expression data, new experiments were conducted with 3% DSS and the identical FKK6 dose (n = 3 mice/group) and scheduled as above. RT–qPCR was performed using PowerUp™ SYBR® Green Master Mix (A25741, Thermo Fisher Scientific) and primers specific for IL‐10, TNF‐α, TNFR2, and […]. Each target gene was analyzed in quadruplicate. Normalizing controls included GAPDH (used to illustrate data) and TBP.

[3] = biological target: T1, wild-type PXR.1 (Homo sapiens, UniProt O75469); assay: PXR luciferase reporter assay in HEK293T cells, wild-type PXR.1; assay type: cell-based; conditions: 10 μM, replicate wells
T1 construct: expressed in transfected cells; host or cells: HEK293T
T1 sequence (O75469 whole entry): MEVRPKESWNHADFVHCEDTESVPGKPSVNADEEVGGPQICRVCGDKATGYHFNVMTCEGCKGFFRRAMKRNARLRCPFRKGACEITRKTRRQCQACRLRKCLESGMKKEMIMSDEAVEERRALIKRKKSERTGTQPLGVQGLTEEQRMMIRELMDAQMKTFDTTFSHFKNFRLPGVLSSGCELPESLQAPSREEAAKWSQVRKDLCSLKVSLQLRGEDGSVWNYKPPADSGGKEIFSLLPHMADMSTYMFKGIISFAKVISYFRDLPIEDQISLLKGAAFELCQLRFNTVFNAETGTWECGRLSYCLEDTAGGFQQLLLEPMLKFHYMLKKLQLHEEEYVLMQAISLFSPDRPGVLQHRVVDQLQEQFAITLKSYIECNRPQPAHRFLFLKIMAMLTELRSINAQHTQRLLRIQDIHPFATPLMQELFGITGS
Procedure: After 24‐h transfection using Lipofectamine® LTX ([…] of plasmid), cells were exposed to FKK5 for 24 h. […] The data are expressed as mean ± SD RLU (relative light units from luciferase assay) normalized to β‐Gal activity in the same well. Differences were tested using 2‐way ANOVA with Tukey's multiple comparison test, and P < 0.05 was considered significant (*).

[4] = FKK6 200 μM, day 10, individual mice

C#CCC(O)(c1ccncc1)c1cc2ccccc2n1S(=O)(=O)c1ccccc1 (centres unmarked) [FKK6]
NFkB NanoLuc luminescence, aver ([1]; 1 μM + TNFα 5 ng/ml): 70912.7 | NFkB %max ([1]; 1 μM + TNFα 5 ng/ml): 128.7% and 128.74% | NFkB NanoLuc luminescence, aver ([1]; 10 μM + TNFα 5 ng/ml): 56963.0 | NFkB %max ([1]; 10 μM + TNFα 5 ng/ml): 103.4% and 103.41% | NFkB NanoLuc luminescence, aver ([1]; 25 μM + TNFα 5 ng/ml): 50715.5 | NFkB %max ([1]; 25 μM + TNFα 5 ng/ml): 92.1% and 92.07% | NF-κB reporter activity ([1]; TNF-exposed PXR-KO cells): neither rifampicin nor FKK6 repressed | colon tissue IL-10 mRNA ([2]; 3% DSS, FKK6 vs controls): significant increase | colon tissue TNF-α mRNA ([2]; 3% DSS, FKK6 vs controls): decrease | colon tissue TNFR2 mRNA ([2]; 3% DSS, FKK6 vs controls): decrease | colon tissue IL-17f mRNA ([2]; 3% DSS, FKK6 vs vehicle): significant reduction | fecal lipocalin 2 ([2]; FKK6 200 μM): only a trend in the reduction | serum FITC-dextran ([2]; FKK6 200 μM): only a trend in the reduction | % weight loss from baseline (day 1 vs. day 10) ([2]; FKK6 200 μM oral gavage plus intrarectal, once daily 10 days, individual mice): significantly reduced weight loss and 20% and 16% | colon length [2, 4]: increased colon length and 5.2 cm and 5.6 cm and 5.1 cm | inflammation score [2, 4]: substantially decreased and 3 and 5 | PXR reporter activity, RLU/B-Gal [3]: 49029.5 RLU/B-Gal and 34153.4 RLU/B-Gal and 41512.1 RLU/B-Gal and 34385.8 RLU/B-Gal
